Patent US11738097B2, “Curcuminoid chemotherapeutic drug carrier composition” (Imam Abdulrahman Bin Faisal University, priority 2018, dated 2023)

Assays:
Cell viability MTT assay = type: cell-based, human; settings: human, MCF7 cells, maintained throughout the different concentrations (10-100 μg/ml), curcumin stock 390 μg/ml
Description: (§1) Materials and Methods/Cell cultures: In this study, a human mammary adenocarcinoma cell line, MCF7, was used for in vitro testing. MCF7 cells were maintained in DMEM (Dulbecco's Modified Eagle Medium) (Gibco, life technologies) supplemented with 10% heat inactivated fetal bovine serum (HI-FBS) (Gibco, life technology), 1% Penicillin Streptomycin (100×-Gibco, life technology), and 1% MEM NEAA (MEM non-essential amino acids) (100×-Gibco, life technology). Cells were kept in a humidified incubator at 37° C. with 5% CO2. For the experimental setup, MCF7 cells were seeded on a 96-well plate at a density of 10,000 cells/well. On the next day, cells were shifted to the starve media (0.5% HI-FBS containing media) for 24 h before treatment. […]
(§2) Cell viability MTT Assay: The viability of cells was tested using 3-(4,5-dimethylthiazol-2-yl)-2,5-diphenyltetrazolium bromide (MTT) assay. […] The change in color intensity was measured at 570 nm wavelength using SYNERGY-neo2 BioTek ELISA reader. […] The reading of each triplicate was averaged and subtracted from the averaged MTT background control reading. […]
(§3) To investigate the cytotoxic effects of curcumin-loaded/Fe2O3 impregnated mesocellular foam silica nanoparticles, the inventors assessed cell viability using the MTT assay on MCF7 cells. […]

MCF7 cells = test: Cell viability MTT assay; type: cell-based, human; settings: 10, 20, 40, 80, 100 μg/ml, 24 h
Description: as §1, §2, §3

Compound: COc1cc(/C=C/C(=O)CC(=O)/C=C/c2ccc(O)c(OC)c2)ccc1O [Curcumin]
- viability at 24 h (Cell viability MTT assay): 66.6%
- effect on cell viability (in words) (MCF7 cells): significantly reduced cell viability
